Laboratory results as given in PubChem BioAssay AID300 (DTP/NCI, 2004).
“And” between values parts separate entries of the source, which are not always exact repeats. Equal entries are not always repeated. Records with an inconclusive call do not appear. Rule for the calls: active = survival T/C of 150% or more; inactive = T/C below 125% in these data.

Test system: Madison 109 lung carcinoma i.m., mice, median survival
Experiment: NCI In Vivo Anticancer Drug Screen. Data for tumor model Madison 109 Lung Carcinoma (intramuscular) in unknown mice
Details: endpoint: median survival time, higher = longer survival
Method: The antitumor activity of compounds was measured in mice bearing transplantable tumors. Survival or tumor size were measured and the results are expressed as the measurement made in the treated group (T) divided by the measurement made in the vehicle treated control group (C). The tumor model used in this assay is Madison 109 Lung Carcinoma (intramuscular) in unknown mice

Measured: T/C

O=[N+]([O-])c1cccc([N+](=O)[O-])c1Cl
inactive: dose: 10.0 mg/kg/injection, schedule: Q02DX009 (ip), vehicle: water 105 % of control | dose: 20.0 mg/kg/injection, schedule: Q02DX009 (ip), vehicle: water 113 % of control | dose: 80.0 mg/kg/injection, schedule: Q02DX009 (ip), vehicle: water 122 % of control | dose: 160.0 mg/kg/injection, schedule: Q02DX009 (ip), vehicle: water 112 % of control and 103 % of control

NC(C=O)C(O)C(O)C(O)CO (configuration not stated)
inactive: dose: 400.0 mg/kg/injection, schedule: Q01DX009 (ip), vehicle: saline 98 % of control | dose: 800.0 mg/kg/injection, schedule: Q01DX009 (ip), vehicle: saline 93 % of control | dose: 1600.0 mg/kg/injection, schedule: Q01DX009 (ip), vehicle: saline 96 % of control | dose: 3200.0 mg/kg/injection, schedule: Q01DX009 (ip), vehicle: saline 110 % of control

COc1cccc2c1C(=O)c1c(O)c3c(c(O)c1C2=O)C[C@@](O)(C(=O)CO)C[C@@H]3OC1CC(N)C(O)C(C)O1 (some centres not stated)
inactive: dose: 0.25 mg/kg/injection, schedule: Q01DX005 (ip), vehicle: water 102 % of control | dose: 0.4 mg/kg/injection, schedule: Q01DX009 (ip), vehicle: water 98 % of control | dose: 0.5 mg/kg/injection, schedule: Q01DX005 (ip), vehicle: water 119 % of control and 120 % of control | dose: 0.63 mg/kg/injection, schedule: Q04DX003 (ip), vehicle: water 104 % of control | dose: 0.8 mg/kg/injection, schedule: Q01DX009 (ip), vehicle: water 104 % of control | dose: 1.0 mg/kg/injection, schedule: Q01DX005 (ip), vehicle: water 120 % of control | dose: 1.2 mg/kg/injection, schedule: Q01DX009 (ip), vehicle: water 105 % of control | dose: 1.25 mg/kg/injection, schedule: Q04DX003 (ip), vehicle: water 96 % of control | dose: 1.6 mg/kg/injection, schedule: Q01DX009 (ip), vehicle: water 102 % of control | dose: 2.5 mg/kg/injection, schedule: Q01DX005 (ip), vehicle: water 36 % of control | dose: 2.5 mg/kg/injection, schedule: Q04DX003 (ip), vehicle: water 101 % of control

O=S(=O)(n1ccnc1)C(F)(F)F
inactive: dose: 5.0 mg/kg/injection, schedule: Q01DX001 (ip), vehicle: saline 98 % of control | dose: 8.4 mg/kg/injection, schedule: Q01DX001 (ip), vehicle: saline 88 % of control | dose: 14.0 mg/kg/injection, schedule: Q01DX001 (ip), vehicle: saline 92 % of control

Nc1n[nH]c(N)n1
inactive: dose: 300.0 mg/kg/injection, schedule: Q01DX009 (ip), vehicle: water 118 % of control | dose: 500.0 mg/kg/injection, schedule: Q01DX009 (ip), vehicle: water 118 % of control | dose: 600.0 mg/kg/injection, schedule: Q01DX009 (ip), vehicle: water 100 % of control

COc1cc2c(c(OC)c1OC)-c1ccc(OC)c(=O)cc1[C@@H](NC(C)=O)CC2
inactive: dose: 0.06 mg/kg/injection, schedule: Q01DX009 (ip), vehicle: water 100 % of control | dose: 0.12 mg/kg/injection, schedule: Q01DX009 (ip), vehicle: water 90 % of control | dose: 0.24 mg/kg/injection, schedule: Q01DX009 (ip), vehicle: water 100 % of control

Cc1c(N)nc([C@H](CC(N)=O)NC[C@H](N)C(N)=O)nc1C(=O)N[C@H](C(=O)N[C@H](C)[C@@H](O)[C@H](C)C(=O)N[C@H](C(=O)NCCc1nc(-c2nc(C(=O)NCCC[S+](C)C)cs2)cs1)[C@@H](C)O)C(OC1OC(CO)C(O)C(O)C1OC1OC(CO)C(O)C(OC(N)=O)C1O)c1cnc[nH]1 (some centres not stated)
inactive: dose: 2.5 mg/kg/injection, schedule: Q04DX003 (ip), vehicle: saline 120 % of control | dose: 5.0 mg/kg/injection, schedule: Q04DX003 (ip), vehicle: saline 123 % of control | dose: 20.0 mg/kg/injection, schedule: Q04DX003 (ip), vehicle: saline 108 % of control | dose: 30.0 mg/kg/injection, schedule: Q04DX003 (ip), vehicle: saline 100 % of control

CCN(CC)CCOc1ccc2c(c1)C(=O)c1cc(OCCN(CC)CC)ccc1-2
inactive: dose: 25.0 mg/kg/injection, schedule: Q04DX009 (ip), vehicle: Klucel (hydroxypropylcellulose) (HPC) 111 % of control | dose: 50.0 mg/kg/injection, schedule: Q04DX009 (ip), vehicle: Klucel (hydroxypropylcellulose) (HPC) 114 % of control | dose: 75.0 mg/kg/injection, schedule: Q04DX009 (ip), vehicle: Klucel (hydroxypropylcellulose) (HPC) 102 % of control

COc1cccc2c1C(=O)c1c(O)c3c(c(O)c1C2=O)CC(O)(C(C)=O)CC3OC1CC(N)C(O)C(C)O1 (configuration not stated)
inactive: dose: 5.5 mg/kg/injection, schedule: Q01DX005 (ip), vehicle: water 123 % of control | dose: 8.0 mg/kg/injection, schedule: Q01DX005 (ip), vehicle: water 123 % of control | dose: 16.5 mg/kg/injection, schedule: Q01DX005 (ip), vehicle: water 119 % of control and 120 % of control | dose: 24.0 mg/kg/injection, schedule: Q01DX005 (ip), vehicle: water 73 % of control | dose: 27.5 mg/kg/injection, schedule: Q01DX005 (ip), vehicle: water 52 % of control | dose: 31.5 mg/kg/injection, schedule: Q01DX005 (ip), vehicle: water 123 % of control | dose: 40.0 mg/kg/injection, schedule: Q01DX005 (ip), vehicle: water 114 % of control | dose: 52.5 mg/kg/injection, schedule: Q01DX005 (ip), vehicle: water 114 % of control

COC1=C(N)C(=O)c2nc(-c3nc(C(=O)O)c(C)c(-c4ccc(OC)c(OC)c4O)c3N)ccc2C1=O
inactive: dose: 2.0 micrograms/kg/injection, schedule: Q01DX009 (ip), vehicle: other 102 % of control | dose: 5.0 micrograms/kg/injection, schedule: Q01DX009 (ip), vehicle: other 103 % of control and 111 % of control | dose: 10.0 micrograms/kg/injection, schedule: Q01DX009 (ip), vehicle: other 106 % of control and 116 % of control | dose: 20.0 micrograms/kg/injection, schedule: Q01DX009 (ip), vehicle: other 115 % of control and 117 % of control | dose: 30.0 micrograms/kg/injection, schedule: Q01DX009 (ip), vehicle: other 109 % of control

NC(=O)c1ncn(C2OC(CO)C(O)C2O)n1 (configuration not stated)
inactive: dose: 12.5 mg/kg/injection, schedule: Q01DX009 (ip), vehicle: water 103 % of control | dose: 25.0 mg/kg/injection, schedule: Q01DX009 (ip), vehicle: water 100 % of control | dose: 50.0 mg/kg/injection, schedule: Q01DX009 (ip), vehicle: water 109 % of control | dose: 100.0 mg/kg/injection, schedule: Q01DX009 (ip), vehicle: water 115 % of control

CSCS(=O)C[C@H](CO)NC(=O)/C=C/c1c(C)[nH]c(=O)[nH]c1=O (some centres not stated)
inactive: dose: 0.02 mg/kg/injection, schedule: Q01DX009 (ip), vehicle: water 89 % of control | dose: 0.05 mg/kg/injection, schedule: Q01DX009 (ip), vehicle: water 97 % of control | dose: 0.1 mg/kg/injection, schedule: Q01DX009 (ip), vehicle: water 91 % of control | dose: 0.2 mg/kg/injection, schedule: Q01DX009 (ip), vehicle: water 94 % of control

O=C(O)CCCc1ccc(N(CCCl)CCCl)cc1
inactive: dose: 1.5 mg/kg/injection, schedule: Q01DX009 (ip), vehicle: saline 105 % of control

CC1OC(O[C@H]2/C=C/C=C/C=C/C=C/C=C/C=C/C=C/[C@H](C)[C@@H](O)[C@@H](C)[C@H](C)OC(=O)C[C@H](O)C[C@H](O)CC[C@@H](O)[C@H](O)C[C@H](O)C[C@]3(O)C[C@H](O)[C@@H](C(=O)O)[C@H](C2)O3)C(O)C(N)C1O (some centres not stated)
inactive: dose: 6.25 mg/kg/injection, schedule: Q01DX009 (ip), vehicle: saline with Tween-80 108 % of control | dose: 12.5 mg/kg/injection, schedule: Q01DX009 (ip), vehicle: saline with Tween-80 118 % of control | dose: 25.0 mg/kg/injection, schedule: Q01DX009 (ip), vehicle: saline with Tween-80 88 % of control | dose: 50.0 mg/kg/injection, schedule: Q01DX009 (ip), vehicle: saline with Tween-80 110 % of control | dose: 100.0 mg/kg/injection, schedule: Q01DX009 (ip), vehicle: saline with Tween-80 93 % of control

CN(C)/N=N/c1nc[nH]c1C(N)=O
inactive: dose: 200.0 mg/kg/injection, schedule: Q01DX009 (ip), vehicle: Klucel (hydroxypropylcellulose) (HPC) 121 % of control

O=[N+]([O-])c1ccc(Cl)c([N+](=O)[O-])c1
inactive: dose: 10.0 mg/kg/injection, schedule: Q01DX009 (ip), vehicle: water 119 % of control | dose: 40.0 mg/kg/injection, schedule: Q01DX001 (ip), vehicle: water 116 % of control | dose: 40.0 mg/kg/injection, schedule: Q01DX009 (ip), vehicle: water 119 % of control | dose: 80.0 mg/kg/injection, schedule: Q01DX001 (ip), vehicle: water 100 % of control | dose: 80.0 mg/kg/injection, schedule: Q01DX009 (ip), vehicle: water 109 % of control | dose: 160.0 mg/kg/injection, schedule: Q01DX001 (ip), vehicle: water 109 % of control | dose: 160.0 mg/kg/injection, schedule: Q01DX009 (ip), vehicle: water 116 % of control | dose: 320.0 mg/kg/injection, schedule: Q01DX001 (ip), vehicle: water 119 % of control | dose: 640.0 mg/kg/injection, schedule: Q01DX001 (ip), vehicle: water 90 % of control
